The target in the assay is T1, T1R umami taste receptor (Homo sapiens, UniProt Q7RTX0+Q7RTX1).
T1 sequence (Q7RTX1 21-841): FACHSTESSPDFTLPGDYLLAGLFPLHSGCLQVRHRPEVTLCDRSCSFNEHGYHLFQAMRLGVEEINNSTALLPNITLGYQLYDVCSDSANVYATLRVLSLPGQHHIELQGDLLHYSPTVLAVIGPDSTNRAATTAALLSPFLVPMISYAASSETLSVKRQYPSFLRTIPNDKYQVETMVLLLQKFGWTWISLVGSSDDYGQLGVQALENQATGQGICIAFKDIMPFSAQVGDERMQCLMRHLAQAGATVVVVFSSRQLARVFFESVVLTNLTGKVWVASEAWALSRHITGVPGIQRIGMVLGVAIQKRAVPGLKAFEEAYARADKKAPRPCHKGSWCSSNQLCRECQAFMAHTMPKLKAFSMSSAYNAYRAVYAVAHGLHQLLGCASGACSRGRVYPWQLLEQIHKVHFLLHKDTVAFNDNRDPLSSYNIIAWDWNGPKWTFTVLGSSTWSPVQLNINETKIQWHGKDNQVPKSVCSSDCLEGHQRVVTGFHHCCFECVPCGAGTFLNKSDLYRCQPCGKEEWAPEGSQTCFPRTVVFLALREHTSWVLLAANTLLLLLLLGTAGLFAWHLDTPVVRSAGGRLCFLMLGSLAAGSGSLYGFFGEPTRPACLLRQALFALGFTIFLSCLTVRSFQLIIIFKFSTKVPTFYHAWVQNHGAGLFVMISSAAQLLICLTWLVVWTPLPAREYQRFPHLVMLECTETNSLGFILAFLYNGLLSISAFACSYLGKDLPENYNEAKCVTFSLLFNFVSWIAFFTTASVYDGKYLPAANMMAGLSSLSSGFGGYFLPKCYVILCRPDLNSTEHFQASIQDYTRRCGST
T1 sequence (Q7RTX0 21-852): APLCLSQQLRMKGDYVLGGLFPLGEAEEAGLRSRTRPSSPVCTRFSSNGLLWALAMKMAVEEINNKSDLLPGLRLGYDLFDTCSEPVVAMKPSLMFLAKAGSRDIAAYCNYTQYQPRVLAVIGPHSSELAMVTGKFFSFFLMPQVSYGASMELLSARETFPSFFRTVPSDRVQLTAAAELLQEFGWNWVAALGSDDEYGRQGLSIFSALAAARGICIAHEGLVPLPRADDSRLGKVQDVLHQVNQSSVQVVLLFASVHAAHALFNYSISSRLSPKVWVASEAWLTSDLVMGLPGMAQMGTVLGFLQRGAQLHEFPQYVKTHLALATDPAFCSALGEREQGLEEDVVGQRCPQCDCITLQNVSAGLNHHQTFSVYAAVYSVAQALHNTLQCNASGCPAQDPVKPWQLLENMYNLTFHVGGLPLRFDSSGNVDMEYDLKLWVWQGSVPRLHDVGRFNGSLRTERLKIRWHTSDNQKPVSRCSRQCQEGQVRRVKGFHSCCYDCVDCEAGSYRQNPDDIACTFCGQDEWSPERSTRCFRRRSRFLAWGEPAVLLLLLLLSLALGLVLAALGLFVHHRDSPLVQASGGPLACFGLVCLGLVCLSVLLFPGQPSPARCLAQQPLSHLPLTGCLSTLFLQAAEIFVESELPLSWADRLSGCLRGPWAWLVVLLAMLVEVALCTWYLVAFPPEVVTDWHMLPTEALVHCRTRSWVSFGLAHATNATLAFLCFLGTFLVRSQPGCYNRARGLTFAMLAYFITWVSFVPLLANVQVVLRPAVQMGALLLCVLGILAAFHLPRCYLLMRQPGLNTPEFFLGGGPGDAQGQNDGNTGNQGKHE
Put plainly: in vitro cell-based assay having cells that express the T1R umami taste receptor (enhancement of MSG). The note with it: for pEC50: cells expressing T1R umami taste receptor, read-out: EC50 for enhancement of MSG binding. The method, then:
Each of Compounds 101-183 was synthesized according to one of the general procedures set forth above in Examples 1. Thereafter, the compounds were tested in an in vitro cell-based assay having cells that express the T1R umami taste receptor. Dose-binding curves were recorded and the EC50 was determined for enhancement of MSG binding. Table 2 sets forth the calculated EC50 values for certain tested compounds as well as the MSG enhancement ratio at a particular concentration.

SMILES strings stand for the structures. pEC50: −log10 of the molar value.

`CCOC(=O)CC[C@H](NC(=O)c1cn(C)c2ccccc12)C(=O)OCC` [Compound 134, Diethyl (1-methyl-1H-indole-3-carbonyl)-L-glutamate]: the pEC50 was less than 4.30. For the same compound, under “compound at 50 μM”, the “MSG Enh. Ratio” value is reported as 3.8 @. Turning to `CCOC(=O)[C@H](CC(C)C)NC(=O)/C=C/c1ccccc1` [Compound 135, Ethyl cinnamoyl-L-leucinate], the “MSG Enh. Ratio” value (compound at 50 μM) is recorded as 5.3 @. For the compound `CCOC(=O)[C@@H](NC(=O)/C=C/c1ccccc1)C(C)C` [Compound 136, Ethyl cinnamoyl-L-valinate], the negative-log EC50 (pEC50) was 4.64. In addition, the “MSG Enh. Ratio” value (compound at 10 μM) is given as 5.4 @. Take `CCOC(=O)[C@@H](NC(=O)/C=C/c1ccccc1)[C@@H](C)CC` [Compound 137, Ethyl cinnamoyl-L-isoleucinate]: under “compound at 50 μM”, the “MSG Enh. Ratio” value was 4.3 @. For `CCOC(=O)C[C@H](NC(=O)/C=C/c1ccccc1)C(=O)OCC` [Compound 138, Diethyl cinnamoyl-L-aspartate], the pEC50 is less than 4.30. Moreover, the “MSG Enh. Ratio” value (compound at 50 μM) was 2.0 @. On to `COC(=O)CC[C@H](NC(=O)/C=C/c1ccccc1)C(=O)OC` [Compound 139, Dimethyl cinnamoyl-L-glutamate], for which the “MSG Enh. Ratio” value (compound at 50 μM) is recorded as 3.82 @. As to `CCOC(=O)CC[C@H](NC(=O)/C=C/c1ccccc1)C(=O)OCC` [Compound 140, Diethyl cinnamoyl-L-glutamate], the pEC50 was 4.92. Moreover, the “MSG Enh. Ratio” value (compound at 10 μM) was 5.6 @. With `CCOC(=O)[C@H](Cc1ccccc1)NC(=O)/C=C/c1ccccc1` [Compound 141, Ethyl cinnamoyl-L-phenylalaninate], for the setting “compound at 10 μM”, the “MSG Enh. Ratio” value is 5.5 @. Consider `COC(=O)[C@H](C)NC(=O)/C=C/c1ccc(OC)cc1` [Compound 142, Methyl (E)-(3-(4-methoxyphenyl)acryloyl)-L-alaninate], for which the pEC50 was less than 4.30. Besides, the “MSG Enh. Ratio” value (compound at 50 μM) is listed as 3.3 @. As for `CCOC(=O)[C@@H](NC(=O)/C=C/c1ccccc1OC)C(C)C` [Compound 143, Ethyl (E)-(3-(2-methoxyphenyl)acryloyl)-L-valinate], the pEC50 was 4.82. Further, the “MSG Enh. Ratio” value (compound at 10 μM) is recorded as 4.4 @.

Turning to `COC(=O)[C@@H](CC(C)C)NC(=O)/C=C/c1ccc(OC)cc1` [Compound 144, Methyl (E)-(3-(4-methoxyphenyl)acryloyl)-D-leucinate], the pEC50 was 7.00.

For `CCOC(=O)[C@H](NC(=O)/C=C/c1ccc(OC)cc1)C(C)C` [Compound 145, Ethyl (E)-(3-(4-methoxyphenyl)acryloyl)-D-valinate], the pEC50 is 6.00. For the compound `COC(=O)[C@H](Cc1ccccc1)NC(=O)/C=C/c1ccc(OC)cc1` [Compound 146, Methyl (E)-(3-(4-methoxyphenyl)acryloyl)-L-phenylalaninate], the negative-log EC50 (pEC50) was 6.00. The “MSG Enh. Ratio” value (compound at 0.3 μM) is 6.4 @. On to `CCOC(=O)[C@@H](NC(=O)/C=C/c1ccc(OC)cc1)C(C)C` [Compound 147, Ethyl (E)-(3-(4-methoxyphenyl)acryloyl)-L-valinate], for which the pEC50 is 5.65. Moreover, for the setting “compound at 0.3 μM”, the “MSG Enh. Ratio” value is 3.0 @. As for `CCOC(=O)[C@H](Cc1ccccc1)NC(=O)/C=C/c1ccc(OC)cc1` [Compound 148, Ethyl (E)-(3-(4-methoxyphenyl)acryloyl)-L-phenylalaninate], the pEC50 was 5.00. In addition, where the note is “compound at 1 μM”, the “MSG Enh. Ratio” value is 3.5 @. For the compound `COC(=O)[C@H](CC(C)C)NC(=O)/C=C/c1ccc(OC)cc1` [Compound 149, Methyl (E)-(3-(4-methoxyphenyl)acryloyl)-L-leucinate], the pEC50 is 4.96. Also, the “MSG Enh. Ratio” value (compound at 3 μM) was 4.5 @. Turning to `CCOC(=O)[C@@H](CC(C)C)NC(=O)/C=C/c1ccc(OC)cc1` [Compound 150, Ethyl (E)-(3-(4-methoxyphenyl)acryloyl)-D-leucinate], the pEC50 was 6.00. For the compound `CCOC(=O)CC[C@H](NC(=O)/C=C/c1ccc(OC)cc1)C(=O)OCC` [Compound 151, Diethyl (E)-(3-(4-methoxyphenyl)acryloyl)-L-glutamate], the pEC50 is 5.70. Also, the “MSG Enh. Ratio” value (compound at 3 μM) is on record as 4.2 @. With `COC(=O)[C@H](Cc1ccccc1)NC(=O)/C=C/c1ccccc1OC` [Compound 152, Methyl (E)-(3-(2-methoxyphenyl)acryloyl)-L-phenylalaninate], the pEC50 was 4.57. In addition, for the setting “compound at 10 μM”, the “MSG Enh. Ratio” value is listed as 2.8 @. For the compound `CCOC(=O)[C@@H](NC(=O)/C=C/c1ccc(OCC)cc1)C(C)C` [Compound 153, Ethyl (E)-(3-(4-ethoxyphenyl)acryloyl)-L-valinate], the negative-log EC50 (pEC50) was 6.00. For the same compound, the “MSG Enh. Ratio” value (compound at 0.3 μM) was 7.4 @.

On to `CCOC(=O)[C@H](Cc1ccccc1)NC(=O)/C=C/c1ccc(OCC)cc1` [Compound 154, Ethyl (E)-(3-(4-ethoxyphenyl)acryloyl)-L-phenylalaninate], for which the pEC50 is 5.52. Further, the “MSG Enh. Ratio” value (compound at 3 μM) is reported as 2.0 @. Consider `CCOc1ccc(/C=C/C(=O)N[C@@H](Cc2ccccc2)C(=O)OC)cc1` [Compound 155, Methyl (E)-(3-(4-ethoxyphenyl)acryloyl)-L-phenylalaninate], for which the negative logarithm of the EC50 (pEC50) was 6.00. Moreover, for the setting “compound at 0.3 μM”, the “MSG Enh. Ratio” value is listed as 8.1 @. Take `CCOC(=O)CC[C@H](NC(=O)/C=C/c1ccc(OCC)cc1)C(=O)OCC` [Compound 156, Diethyl (E)-(3-(4-ethoxyphenyl)acryloyl)-L-glutamate]: the pEC50 was 5.40. Consider `COC(=O)[C@H](Cc1ccccc1)NC(=O)/C=C/c1cc(OC)ccc1OC` [Compound 157, Methyl (E)-(3-(2,5-dimethoxyphenyl)acryloyl)-L-phenylalaninate], for which the pEC50 is less than 4.30. The “MSG Enh. Ratio” value (compound at 50 μM) is given as 3.1 @. For `CCOC(=O)[C@H](Cc1ccccc1)NC(=O)/C=C/c1ccc(OC)c(OC)c1` [Compound 158, Ethyl (E)-(3-(3,4-dimethoxyphenyl)acryloyl)-L-phenylalaninate], the “MSG Enh. Ratio” value (compound at 10 μM) is given as 4.8 @.

With `CCOC(=O)[C@@H](NC(=O)/C=C/c1ccc2c(c1)OCO2)C(C)C` [Compound 159, Ethyl (E)-(3-(benzo[d][1,3]dioxol-5-yl)acryloyl)-L-valinate], the pEC50 is less than 4.30. Also, the “MSG Enh. Ratio” value (compound at 50 μM) is given as 5.8 @. As to `CCOC(=O)[C@H](Cc1ccccc1)NC(=O)/C=C/c1ccc2c(c1)OCO2` [Compound 160, Ethyl (E)-(3-(benzo[d][1,3]dioxol-5-yl)acryloyl)-L-phenylalaninate], the pEC50 is less than 4.30. In addition, where the note is “compound at 50 μM”, the “MSG Enh. Ratio” value was 3.9 @. For the compound `CCOC(=O)CC[C@H](NC(=O)/C=C/c1ccc2c(c1)OCO2)C(=O)OCC` [Compound 161, Diethyl (E)-(3-(benzo[d][1,3]dioxol-5-yl)acryloyl)-L-glutamate], the pEC50 was less than 4.70. Further, where the note is “compound at 10 μM”, the “MSG Enh. Ratio” value is listed as 2.9 @. With `CCOC(=O)[C@H](CC(C)C)NC(=O)/C=C/c1ccc2c(c1)OCO2` [Compound 162, Ethyl (E)-(3-(benzo[d][1,3]dioxol-5-yl)acryloyl)-L-leucinate], the pEC50 was less than 4.30. The “MSG Enh. Ratio” value (compound at 50 μM) was 3.4 @. In the same order, the values of `CCOC(=O)[C@@H](NC(=O)/C=C/c1ccc2c(c1)OCO2)[C@@H](C)CC` [Compound 163, Ethyl ((E)-3-(benzo[d][1,3]dioxol-5-yl)acryloyl)-L-isoleucinate] are less than 4.30 and 2.4 @.

A word on the pEC50: it is the negative decadic logarithm of the EC50, by convention in mol/L.

Values taken from US20250024871A1, “AMIDE COMPOUNDS AND THEIR USE AS FLAVOR MODIFIERS” (Firmenich Incorporated, priority 2021, published 2025).
